# Starred links: 1 amine or outer side, 2 acyl side, 3 side chain; linkers in the order of their positions; H or OH if unused. Non-standard residues stand in square brackets, D forms with d. Residues, ends and D or L forms follow the SMILES beside them. *: point of attachment. Dolaproine = CO[C@@H]([C@@H]1CCCN1)[C@@H](C)C(=O)O; Hexanoyl(6-maleimido) = O=C1C=CC(=O)N1CCCCCC(=O)*; Dil = CC[C@H](C)[C@H](NC)[C@@H](CC(=O)O)OC; PABC = O=C(OCc1ccc(N[*:1])cc1)[*:2]; X1 = C[C@@H](N*)[C@@H](O)c1ccccc1; Cit = NC(=O)NCCC[C@H](N)C(=O)O; NMeV = CN[C@H](C(=O)O)C(C)C
# Key:
# [1] = test system: L5178Y TK+/−mouse lymphoma; assay: L5178Y TK+/− mouse lymphoma mutation assay; assay type: cell-based
# [2] = test system: rats; assay: Micronucleus test in rats; assay type: in vivo
# [3] = test system: squamous NSCLC, Gastric (GEJ) cancer, HNSCC, NSCLC-adenocarcinoma, head & neck cancer-squamous, and breast cancer; conditions: MMAE, Vinca, or both MMAE and Vinca; Vinca used if data for MMAE was not available; cited from earlier work
# [4] = test system: bacteria; assay: Reverse mutation test in bacteria (Ames test)
# [5] = Absorbance / phototoxicity assessment (ICH S10)
# [6] = test system: cell line engineered to express human 191P4D12; assay: In vitro cell survival, engineered cell line; assay type: cell-based
# [7] = test system: human lung cancer xenograft AG-L4; assay: Efficacy in subcutaneous established human lung cancer xenograft AG-L4 in SCID mice; assay type: in vivo; conditions: 10 mg/kg every seven days for two doses, intravenous bolus; compared to control ADC
# Experimental: In another experiment, patient-derived lung cancer xenograft AG-L4 was maintained by serial passages in SCID mice. Stock tumors were harvested sterilely and minced into 1 mm^3 pieces. Six (6) pieces were implanted into the flank of individual SCID mice. Tumors were allowed to grow untreated until they reached an approximate volume of 200 mm^3. The Ha22-2(2,4)6.1vcMMAE and the control ADC were dosed at 10 mg/kg every seven (7) days for two doses by intravenous bolus injection. The amount of ADC administered was based on the individual body weight of each animal obtained immediately prior to dosing. Tumor growth was monitored using caliper measurements every 3 to 4 days. Tumor volume was calculated as Width^2×Length/2, where width is the smallest dimension and length is the largest dimension.
# [8] = test system: human breast cancer xenograft BT-483; assay: Efficacy in subcutaneous established human breast cancer xenograft BT-483 in SCID mice; assay type: in vivo; conditions: 5 mg/kg every four days for four doses, intravenous bolus; compared to control ADC
# Experimental: In this experiment, human breast cancer BT-483 cells were used to generate stock xenografts, which were maintained by serial passages in SCID mice. Stock tumors were harvested sterilely and minced into 1 mm^3 pieces. Six (6) pieces were implanted into the flank of individual SCID mice. Tumors were allowed to grow untreated until they reached an approximate volume of 100 mm^3. The Ha22-2(2,4)6.1vcMMAE and the control ADC were dosed at 5 mg/kg every four (4) days for four (4) doses by intravenous bolus injection. The amount of ADC administered was based on the individual body weight of each animal obtained immediately prior to dosing. Tumor growth was monitored using caliper measurements every 3 to 4 days. Tumor volume was calculated as Width^2×Length/2, where width is the smallest dimension and length is the largest dimension.
# [9] = test system: lung cancer xenografts; assay: Formation of lung cancer xenografts (subcutaneous mouse xenograft model); parameters: species or system SCID mice; conditions: in vivo
# Experimental: (§1) Subcutaneous (s.c.) tumors are generated by injection of 5×10^4- 10^6 cancer cells mixed at a 1:1 dilution with Matrigel (Collaborative Research) in the right flank of male SCID mice. To test ADC efficacy on tumor formation, ADC injections are started on the same day as tumor-cell injections. As a control, mice are injected with either purified human IgG or PBS; or a purified MAb that recognizes an irrelevant antigen not expressed in human cells. In preliminary studies, no difference is found between control IgG or PBS on tumor growth. Tumor sizes are determined by caliper measurements, and the tumor volume is calculated as width^2×Length/2, wherein width is the smallest dimension and length is the largest dimension. Mice with subcutaneous tumors greater than 1.5 cm in diameter are sacrificed.
# [10] = test system: breast cancer xenografts; assay: Formation of breast cancer xenografts (subcutaneous mouse xenograft model); parameters: species or system SCID mice; conditions: in vivo
# Experimental: as §1
# [11] = test system: xenograft of a patient-derived bladder cancer; assay: Tumor xenograft model, patient-derived bladder cancer; assay type: in vivo; conditions: in a dose-dependent manner
# [12] = test system: xenograft of human HR+breast cancer cell line; assay: Tumor xenograft model, human HR+ breast cancer cell line; assay type: in vivo; conditions: 5 mg/kg every 4 days for 4 doses
# [13] = test system: xenografts of human lung adenocarcinoma cell line; assay: Tumor xenograft model, human lung adenocarcinoma cell line; assay type: in vivo
# [14] = test system: patient-derived lung adenocarcinoma; assay: Tumor xenograft model, patient-derived lung adenocarcinoma; assay type: in vivo
# [15] = test system: patient-derived TNBC cell xenograft; assay: Patient-derived TNBC cell xenograft model; assay type: in vivo
# [16] = test system: male and female rats; assay: Immunogenicity in rats; assay type: in vivo
# [17] = test system: cynomolgus monkeys; assay: Immunogenicity in cynomolgus monkeys; assay type: in vivo
# [18] = test system: cynomolgus monkeys
# [19] = test system: acute myeloid leukemia (AML) at relapse; conditions: administered alone; cited from earlier work
# [20] = test system: rats; assay: Toxicity studies in rats; assay type: in vivo
# [21] = test system: metastatic urothelial cancer; assay: EV-101 phase 1 dose escalation/expansion study; assay type: in vivo, human
# From the text: EV-101 is a phase 1 dose escalation/expansion study that enrolled patients with 191P4D12-expressing solid tumors, (eg, metastatic urothelial cancer [UC]), who progressed on ≥1 prior chemotherapy regimen, including a cohort of patients with metastatic UC who received prior anti-PD-(L)1 therapy.
# Enfortumab vedotin provided durable responses and meaningful survival results in patients after anti-PD-(L)-1 therapy in a population with a high unmet medical need. The confirmed ORR was 45% by a central review in patients who were treated with enfortumab vedotin 1.25 mg/kg. The median overall survival (OS) of 12.3 months is encouraging given the historical median OS is ≤10.3 months (Bellmunt J et al, N Eng J Med. 2017; 376(11):1015-1026).
# [22] = test system: patients who progressed after platinum chemotherapy and a PD-1/L1 inhibitor; assay: EV-201 pivotal phase 2 study; assay type: in vivo, human
# Experimental: In a pivotal phase 2 study (EV-201), patients must have had prior treatment with platinum-containing chemotherapy or be platinum-naïve and ineligible for cisplatin treatment. […] The confirmed ORR was 44% in patients treated with enfortumab vedotin 1.25 mg/kg. The median OS was 11.7 months and the median duration of response was 7.6 months.
# [23] = biological target: T1, 191P4D12 (Homo sapiens, UniProt Q96NY8); assay: Comparability study: binding affinity to 191P4D12
# T1 sequence (Q96NY8 32-510): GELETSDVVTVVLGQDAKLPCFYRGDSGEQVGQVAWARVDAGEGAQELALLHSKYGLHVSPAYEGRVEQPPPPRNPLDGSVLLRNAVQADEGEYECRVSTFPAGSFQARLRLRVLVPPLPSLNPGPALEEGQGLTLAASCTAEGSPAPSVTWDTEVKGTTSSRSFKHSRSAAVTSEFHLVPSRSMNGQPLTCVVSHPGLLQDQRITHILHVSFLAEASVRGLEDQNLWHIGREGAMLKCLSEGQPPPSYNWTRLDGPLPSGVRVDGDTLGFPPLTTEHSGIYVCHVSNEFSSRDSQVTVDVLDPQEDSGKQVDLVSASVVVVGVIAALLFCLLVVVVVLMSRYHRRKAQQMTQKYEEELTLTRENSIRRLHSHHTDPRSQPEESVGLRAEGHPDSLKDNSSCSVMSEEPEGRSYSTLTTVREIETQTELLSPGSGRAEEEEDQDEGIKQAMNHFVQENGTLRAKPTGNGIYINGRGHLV
# [24] = Comparability study: in vitro cytotoxicity; assay type: cell-based
# [25] = Comparability study: in vivo antitumor activity
# [26] = test system: monkeys; assay: Toxicity studies in monkeys; conditions: sexually immature male monkeys, doses up to 6 mg/kg
compound,measurement,setting,value
"CC[C@H](C)[C@@H]([C@@H](CC(=O)N1CCC[C@H]1[C@H](OC)[C@@H](C)C(=O)N[C@H](C)[C@@H](O)c1ccccc1)OC)N(C)C(=O)[C@@H](NC(=O)[C@@H](NC)C(C)C)C(C)C [MMAE, monomethyl auristatin E] (H-[NMeV]V[Dil][Dolaproine]-X1)",genotoxic potential,[1],no discernible genotoxic potential
same,chromosomal aberrations,[2],induce chromosomal aberrations
same,sensitivity of the cancers to cytotoxicity,[3],sensitive to cytotoxicity
same,genotoxic potential,[4],no discernible genotoxic potential
same,absorbance in the range of 290 nm to 700 nm,[5],no absorbance
"CC[C@H](C)[C@@H]([C@@H](CC(=O)N1CCC[C@H]1[C@H](OC)[C@@H](C)C(=O)N[C@H](C)[C@@H](O)c1ccccc1)OC)N(C)C(=O)[C@@H](NC(=O)[C@H](C(C)C)N(C)C(=O)OCc1ccc(NC(=O)[C@H](CCCNC(N)=O)NC(=O)[C@@H](NC(=O)CCCCCN2C(=O)C=CC2=O)C(C)C)cc1)C(C)C [vc-MMAE, valine-citrulline linker-MMAE] ({Hexanoyl(6-maleimido)}-V[Cit][PABC][NMeV]V[Dil][Dolaproine]-X1)",absorbance against the criteria for phototoxicity testing as defined in the ICH S10 guidance,[5],did not meet the criteria for phototoxicity testing
AGS-22M6,cell survival / cell growth,[6],did not affect cell growth
"AGS-22M6E: ADC derived from a murine hybridoma cell line; antibody Ha22-2(2,4)6.1 conjugated to MMAE via vc linker",growth of AG-L4 lung cancer xenografts (tumor volume),[7],significantly inhibited the growth
same,growth of BT-483 breast tumor xenografts (tumor volume),[8],significantly inhibited the growth
same,formation of lung cancer xenografts,[9],inhibits formation
same,formation of breast cancer xenografts,[10],inhibits formation
same,cell survival / cell growth,[6],inhibited cell survival
same,tumor growth,[11],significantly inhibited the tumor growth
same,tumor growth,[12],significantly inhibited the tumor growth
same,tumor growth,[13],significantly inhibited tumor growth
same,tumor growth,[14],significantly inhibited tumor growth
same,"pharmacological antitumor activity, enfortumab vedotin versus AGS-22M6E",[15],comparable
same,immunogenicity,[16],moderately immunogenic
same,immunogenicity,[17],moderately immunogenic
same,"immunogenicity, AGS-22M6E versus enfortumab vedotin",[17],comparable
same,"pharmacokinetics, AGS-22M6E versus enfortumab vedotin",[18],comparable
same,"safety profile, AGS-22M6E versus enfortumab vedotin",[18],comparable
"CT-011: anti-PD-1 antibody, a humanized antibody",response,[19],failed to show response
enfortumab vedotin,"pharmacological antitumor activity, enfortumab vedotin versus AGS-22M6E",[15],comparable
same,dose at which testicular toxicity (seminiferous tubule degeneration and hypospermia in the epididymis) was noted,[20],≥ 2.0 mg/kg
same,reversibility of testicular findings,[20]; end of a 24-week recovery period,partially reversed
same,"immunogenicity, AGS-22M6E versus enfortumab vedotin",[17],comparable
same,median overall survival (OS),[21],12.3 months
same,confirmed ORR,"[21]; by a central review, 1.25 mg/kg, metastatic urothelial cancer after anti-PD-(L)-1 therapy",45%
same,median OS,[22],11.7 months
same,median duration of response,[22],7.6 months
same,confirmed ORR,[22]; 1.25 mg/kg,44%
same,"comparability of binding affinity to 191P4D12, enfortumab vedotin versus AGS-22M6E",[23],confirmed
same,"comparability of in vitro cytotoxicity, enfortumab vedotin versus AGS-22M6E",[24],confirmed
same,"comparability of in vivo antitumor activity, enfortumab vedotin versus AGS-22M6E",[25],confirmed
same,"safety profile, AGS-22M6E versus enfortumab vedotin",[18],comparable
same,testicular toxicity,[26],not observed
same,photoreactivity / direct phototoxicity,[5]; concluded from absorbance of MMAE and vc-MMAE,not considered to be sufficiently photoreactive
